Article PMC11284787, “Ligand-Directed Labeling of the Adenosine A1 Receptor in Living Cells” (Journal of Medicinal Chemistry, 2024)

Tested on: T1, TS-SNAP-A1AR
T1 construct: signal peptide of the murine 5HT3A receptor (N); expressed in transfected cells; receptor purified on MagStrep beads after labelling in cells
Assay: SDS-PAGE in-gel fluorescence of labeled TS-SNAP-A1AR
Type: cell-based
Conditions: HEK293G TS-SNAP-A1AR cells, 300 nM 11 or 130 nM 12 (then 1 μM Met-Tet-SulfoCy5), 2 h; band at ca. 59.1 kDa
Experimental: Figure 3 Molecular pharmacology and biochemical characterization of 11 and 12. NanoBRET ligand-binding data were measured in HEK293 cells stably expressing the human NL-A1AR (A–C) or rat NL-A1AR (D–F). […] Data were normalized to maximal BRET signals in the absence of unlabeled competing ligands (total binding, TB). (C, F) NanoBRET dissociation kinetics experiments with 11 (SulfoCy5) performed in human and rat NL-A1AR HEK293T cells, respectively. Cells were treated with 250 nM 11 (SulfoCy5, lilac open circles) for 5 h and CA200645 (black open triangles) for 2 h. […] TS-SNAP-A1AR was purified and separated on an SDS-PAGEgel gel, and direct Cy5 fluorescence was visualized using in-gel fluorescence. […]
The small reduction in the BRET signal observed toward the end of the reads could be mostly likely ascribed to substrate (furimazine) consumption. […] To confirm covalent labeling of A1AR by 11 and 12, HEK293G cells stably expressing a Twin-Strep-SNAP-A1AR(TS-SNAP-A1R) construct were treated with 11 or 12 prior to purification, separation by sodium dodecyl sulfate-polyacrylamide gel electrophoresis (SDS-PAGE) and visualization of labeled samples by in-gel fluorescence (Figure 3G). […]
Autocorrelation curves (AC) were constructed from fluorescence fluctuation traces and analysed within Zen Black (2012) software. […]

Compound | in-gel Cy5 fluorescence band of SulfoCy5-labeled TS-SNAP-A1AR
CCCCn1c(=O)c2[nH]c(C34CCC(C(=O)NCCNC(=O)CCNC(=O)c5ccc(OC(=O)CCCCC[N+]6=C(/C=C/C=C/C=C7/N(C)c8ccc(S(=O)(=O)O)cc8C7(C)C)C(C)(C)c7cc(S(=O)(=O)[O-])ccc76)c(F)c5)(CC3)CC4)nc2n(CCCC)c1=O [Compound 11, 1-(6-(4-((3-((2-(4-(1,3-Dibutyl-2,6-dioxo-2,3,6,7-tetrahydro-1H-purin-8-yl)bicyclo[2.2.2]octane-1-carboxamido)ethyl)amino)-3-oxopropyl)carbamoyl)-2-fluorophenoxy)-6-oxohexyl)-3,3-dimethyl-2-((1E,3E)-5-((E)-1,3,3-trimethyl-5-sulfoindolin-2-ylidene)penta-1,3-dien-1-yl)-3H-indol-1-ium-5-sulfonate] | strong band
CCCCn1c(=O)c2[nH]c(C34CCC(C(=O)NCCNC(=O)CCNC(=O)c5ccc(OC(=O)CCC(=O)NCCOCCOCCNC(=O)O[C@H]6CC/C=C/CCC6)c(F)c5)(CC3)CC4)nc2n(CCCC)c1=O [Compound 12, 4-((3-((2-(4-(1,3-Dibutyl-2,6-dioxo-2,3,6,7-tetrahydro-1H-purin-8-yl)bicyclo[2.2.2]octane-1-carboxamido)ethyl)amino)-3-oxopropyl)carbamoyl)-2-fluorophenyl (R,E)-1-(Cyclooct-4-en-1-yloxy)-1,12-dioxo-5,8-dioxa-2,11-diazapentadecan-15-oate] | strong band
